Measurements published in patent US9546129B2, “DTPA prodrugs, compositions thereof, and methods of using the same” (priority 2012, dated 2017).
“And” between values parts separate entries of the source, which are not always exact repeats. Identical values can stand only once.

Legend:
[1] = system: ^241Am contaminated dogs (nose-only inhalation); experiment: Efficacy study in dogs, preliminary ^241Am recovery in urine and liver; format: in vivo, dog; conditions: for Total Recovered Activity, Liver, Treatment Mean / Total Recovered Activity, Urine, Treatment Mean: dogs; for Total Recovered Activity, Liver / Total Recovered Activity, Urine: individual animals
Protocol: Dogs were administered ^241Am (target of 3 μCi/animal) by nose-only inhalation on Day 0. […] Group 1 was a control and was used for determining the unperturbed biokinetics. Fourteen (14) days post C2E2 administration, the animals were sedated and euthanized. Preliminary urinary excretion and liver retention data were obtained (Table 8).

^241Am contaminated rats = experiment: Once vs twice daily dosing ^241Am decorporation study in rats; format: in vivo, Sprague Dawley rat; conditions: for Total Decorporation: seven days after IM ^241Am
Protocol: The animal study was conducted according to a protocol approved by The University of North Carolina at Chapel Hill Institutional Animal Care and Use Committee. Sixteen male Sprague Dawley rats were contaminated with ^241Am(NO3)3 (0.25 μCi) by intramuscular injection (0.1 mL, 0.1 M HNO3) into the right hind leg, under isoflurane anesthesia. Immediately after injection, body weights were recorded (Day 0 weight) and animals placed in individual metabolic cages. The 16 rats were assigned to four groups; untreated control, 5 daily oral gavage doses of 600 mg/kg C2E2 once daily, 5 days of oral gavage treatment of 300 mg/kg C2E2 twice daily or 5 daily intravenous doses of Zn-DTPA solution (13.3 mg/kg) via a jugular vein catheter. The C2E2 was from Lot 050 obtained using Method 2. The C2E2 dosing solution utilized was a 10% w/w solution in water. […] Excreted urine and feces were collected at 2, 4, 8, 10, 12, 14, 18, 20 and 24 hours after the first dose and daily for the remainder of the study. The samples were transferred to 20 mL scintillation vials, weighed and placed in a gamma counter (Wizard2 2480, Perkin Elmer) for detection of ^241Am gamma activity. In addition, following necropsy, selected tissues were removed, weighed and placed in a gamma counter (Wizard2 2480, Perkin Elmer) for detection of ^241Am gamma activity. The total amount of ^241Am administered to the animals was determined by quantifying the 59.7 keV photons emitted by ^241Am in duplicate aliquots (100 μL) of the injection solution using a gamma counter (wizard series, Perkin-Elmer). A counting window from 40-80 keV and a 60-second counting time were used for acquisition and each reading was corrected for background at acquisition. All experimental tissues and samples were counted using the same gamma counter and protocol. For all the samples, ^241Am content was expressed as a percentage of the initial dose. The femur from the leg opposite to the injection site was scaled by a factor of 20 to estimate total skeletal ^241Am burden.

[2] = C2E2 100 mg/kg oral, female dogs
[3] = C2E2 100 mg/kg oral, female dogs, 100 mg/kg
[4] = C2E2 100 mg/kg oral, male dogs, 100 mg/kg
[5] = C2E2 300 mg/kg oral, female dogs
[6] = C2E2 300 mg/kg oral, female dogs, 300 mg/kg
[7] = C2E2 300 mg/kg oral, male dogs, 300 mg/kg
[8] = C2E2 500 mg/kg oral, female dogs
[9] = C2E2 500 mg/kg oral, female dogs, 500 mg/kg
[10] = C2E2 500 mg/kg oral, male dogs, 500 mg/kg

`CCOC(=O)CN(CCN(CCN(CC(=O)O)CC(=O)OCC)CC(=O)O)CC(=O)O` [C2E2, 6,9-bis(carboxymethyl)-3-(2-ethoxy-2-oxoethyl)-11-oxo-12-oxa-3,6,9-triazatetradecan-1-oic acid] was tested, and the “Total Recovered Activity, Liver, Treatment Mean” value ([1]; C2E2 100 mg/kg oral) was 168.91 nCi, the “Total Recovered Activity, Urine, Treatment Mean” value ([1]; C2E2 100 mg/kg oral) was 168.70 nCi and the “Total Recovered Activity, Liver, Gender Mean” value [1, 2] was 157.92 nCi. The “Total Recovered Activity, Urine, Gender Mean” value [1, 2] was 168.30 nCi, the “Total Recovered Activity, Liver” value [1, 3] was 186.4 nCi and 129.4 nCi and the “Total Recovered Activity, Urine” value [1, 3] was 193.85 nCi and 142.75 nCi. For the same molecule, the “Total Recovered Activity, Liver, Gender Mean” value ([1]; C2E2 100 mg/kg oral, male dogs) was 179.89 nCi, the “Total Recovered Activity, Urine, Gender Mean” value ([1]; C2E2 100 mg/kg oral, male dogs) was 169.10 nCi and the “Total Recovered Activity, Liver” value [1, 4] was 213.3 nCi and 146.5 nCi. For the same molecule, the “Total Recovered Activity, Urine” value [1, 4] was 187.57 nCi and 150.63 nCi, the “Total Recovered Activity, Liver, Treatment Mean” value ([1]; C2E2 300 mg/kg oral) was 132.28 nCi and the “Total Recovered Activity, Urine, Treatment Mean” value ([1]; C2E2 300 mg/kg oral) was 169.50 nCi. The “Total Recovered Activity, Liver, Gender Mean” value [1, 5] was 144.49 nCi, the “Total Recovered Activity, Urine, Gender Mean” value [1, 5] was 181.71 nCi and the “Total Recovered Activity, Liver” value [1, 6] was 87.6 nCi and 201.4 nCi. For the same molecule, the “Total Recovered Activity, Urine” value [1, 6] was 121.32 nCi and 242.10 nCi, the “Total Recovered Activity, Liver, Gender Mean” value ([1]; C2E2 300 mg/kg oral, male dogs) was 120.06 nCi and the “Total Recovered Activity, Urine, Gender Mean” value ([1]; C2E2 300 mg/kg oral, male dogs) was 157.29 nCi. For the same molecule, the “Total Recovered Activity, Liver” value [1, 7] was 109.2 nCi and 130.9 nCi, the “Total Recovered Activity, Urine” value [1, 7] was 97.24 nCi and 217.34 nCi and the “Total Recovered Activity, Liver, Treatment Mean” value ([1]; C2E2 500 mg/kg oral) was 45.01 nCi. The “Total Recovered Activity, Urine, Treatment Mean” value ([1]; C2E2 500 mg/kg oral) was 188.82 nCi, the “Total Recovered Activity, Liver, Gender Mean” value [1, 8] was 40.30 nCi and the “Total Recovered Activity, Urine, Gender Mean” value [1, 8] was 103.00 nCi. For the same molecule, the “Total Recovered Activity, Liver” value [1, 9] was 34.3 nCi and 46.3 nCi, the “Total Recovered Activity, Urine” value [1, 9] was 65.39 nCi and 140.61 nCi and the “Total Recovered Activity, Liver, Gender Mean” value ([1]; C2E2 500 mg/kg oral, male dogs) was 49.73 nCi. The “Total Recovered Activity, Urine, Gender Mean” value ([1]; C2E2 500 mg/kg oral, male dogs) was 274.65 nCi, the “Total Recovered Activity, Liver” value [1, 10] was 49.4 nCi and 50.1 nCi and the “Total Recovered Activity, Urine” value [1, 10] was 288.78 nCi and 260.53 nCi. For the same molecule, the “Effect of dividing the dosage (twice daily vs once daily) on total decorporation” value (^241Am contaminated rats; 300 mg/kg BD vs 600 mg/kg OD, male rats) was “did not significantly alter total decorporation”, the “Total Decorporation” value (^241Am contaminated rats; C2E2 300 mg/kg oral gavage twice daily for 5 days, male rats) was 43.6 ± 1.6 % of injected dose and the “Total Decorporation” value (^241Am contaminated rats; C2E2 600 mg/kg oral gavage once daily x5, male rats) was 39.7 ± 2.6 % of injected dose.
